Literature values, collected in article PMC12299598 (Pharmaceuticals, 2025).
Where two headings read alike, the source gives them in different places.

Tests used:
BTK = settings: lower than ibrutinib
[1] = system: patients treated with ibrutinib; design: method as in PMID 29419429
[2] = design: method as in PMID 38955074
[3] = system: patients exposed to ibrutinib
CYP3A4 = system: CYP3A4; design: method as in PMID 1764870

## Nc1ncnc2c1c(-c1ccc(Oc3ccccc3)cc1)nn2C1CCCN(C(=O)C(O)CO)C1 (stereo not shown) [dihydrodiol metabolite]
BTK
  BTK inhibitory activity relative to ibrutinib: 15 fold

## C=CC(=O)N1CCC[C@@H](n2nc(-c3ccc(Oc4ccccc4)cc3)c3c(N)ncnc32)C1 [ibrutinib]
[1]; front-line ibrutinib
  Toxicity leading to discontinuation: arthralgia: 41.6%
  Toxicity leading to discontinuation: atrial fibrillation: 25%
  Toxicity leading to discontinuation: rash: 16.7%
[1]; relapsed/refractory population
  Toxicity leading to discontinuation: atrial fibrillation: 12.3%
  Toxicity leading to discontinuation: bleeding: 9%
  Toxicity leading to discontinuation: diarrhea: 6.6%
  Toxicity leading to discontinuation: infection: 10.7%
  Toxicity leading to discontinuation: pneumonitis: 9.9%
[2]
  Permeability: high
  Solubility: low
Fasting conditions
  Absolute oral bioavailability: 3.9%
Oral administration
  Time to peak concentration: 1 to 2 h
With standard breakfast
  Absolute oral bioavailability: 8.4%
[3]
  Cardiovascular deaths linked to ibrutinib: 303
[3]; CNS events and heart failure
  Mortality rate of cardiovascular ADRs: 20%
[3]; supraventricular and ventricular arrhythmias
  Mortality rate of cardiovascular ADRs: 8%
[3]; supraventricular arrhythmias with concurrent CNS events
  Mortality rate: 28.8%

## COc1ccc2[nH]c([S+]([O-])Cc3ncc(C)c(OC)c3C)nc2c1 (stereo not shown) [omeprazole]
CYP3A4
  CYP3A4 inhibitor strength: weak
